{
  "source": "PubChem BioAssay AID1259407",
  "about": "(Chemical Carcinogenesis Research Information System (CCRIS), 2018)",
  "tested_on": "CCRIS mutagenicity, Ames/micronucleus/aberration tests",
  "assay": "CCRIS mutagenicity studies",
  "key": {"[1]": {"conditions": "Test System: AMES SALMONELLA TYPHIMURIUM, Strain/Indicator: TA98, Metabolic Activation: HAMSTER, LIVER, S-9, AROCLOR 1254 (30%), Method: PREINCUBATION"}, "[2]": {"conditions": "Test System: AMES SALMONELLA TYPHIMURIUM, Strain/Indicator: TA98, Metabolic Activation: NONE, Method: PREINCUBATION"}, "[3]": {"conditions": "Test System: AMES SALMONELLA TYPHIMURIUM, Strain/Indicator: TA98, Metabolic Activation: RAT, LIVER, S-9, AROCLOR 1254 (30%), Method: PREINCUBATION"}, "[4]": {"conditions": "Test System: AMES SALMONELLA TYPHIMURIUM, Strain/Indicator: TA100, Metabolic Activation: HAMSTER, LIVER, S-9, AROCLOR 1254 (30%), Method: PREINCUBATION"}, "[5]": {"conditions": "Test System: AMES SALMONELLA TYPHIMURIUM, Strain/Indicator: TA100, Metabolic Activation: NONE, Method: PREINCUBATION"}, "[6]": {"conditions": "Test System: AMES SALMONELLA TYPHIMURIUM, Strain/Indicator: TA100, Metabolic Activation: RAT, LIVER, S-9, AROCLOR 1254 (30%), Method: PREINCUBATION"}, "[7]": {"conditions": "Test System: AMES SALMONELLA TYPHIMURIUM, Strain/Indicator: TA98, Metabolic Activation: NONE, Method: STANDARD PLATE"}, "[8]": {"conditions": "Test System: AMES SALMONELLA TYPHIMURIUM, Strain/Indicator: TA100, Metabolic Activation: NONE, Method: STANDARD PLATE"}},
  "note": "Active and inactive are the calls of the source. The rule behind the calls is not given here.",
  "data": [
    {"smiles": "COP(=O)(OC)OC", "values": [
      {"measurement": "mutagenic call", "setting": "[1]", "value": "inactive; negative"},
      {"measurement": "mutagenic call", "setting": "[2]", "value": "inactive; negative"},
      {"measurement": "mutagenic call", "setting": "[3]", "value": "inactive; negative"},
      {"measurement": "mutagenic call", "setting": "[4]", "value": "active; positive"},
      {"measurement": "mutagenic call", "setting": "[5]", "value": "inactive; negative"},
      {"measurement": "mutagenic call", "setting": "[6]", "value": "active; positive"},
      {"measurement": "mutagenic call", "setting": "Test System: AMES SALMONELLA TYPHIMURIUM, Strain/Indicator: TA102, Metabolic Activation: NONE, Method: STANDARD PLATE", "value": "inactive; negative"},
      {"measurement": "mutagenic call", "setting": "Test System: AMES SALMONELLA TYPHIMURIUM, Strain/Indicator: TA2638, Metabolic Activation: NONE, Method: STANDARD PLATE", "value": "active; positive"},
      {"measurement": "mutagenic call", "setting": "Test System: E. COLI, Strain/Indicator: WP2 (PKM101), Metabolic Activation: NONE, Method: STANDARD PLATE", "value": "active; positive"},
      {"measurement": "mutagenic call", "setting": "Test System: E. COLI, Strain/Indicator: WP2 UVRA (PKM101), Metabolic Activation: NONE, Method: STANDARD PLATE", "value": "active; positive"}
    ]},
    {"smiles": "O=[N+]([O-])c1ccc2c(c1)Oc1cc(Cl)c(Cl)cc1O2", "values": [
      {"measurement": "mutagenic call", "setting": "[7]", "value": "active; positive"},
      {"measurement": "mutagenic call", "setting": "Test System: AMES SALMONELLA TYPHIMURIUM, Strain/Indicator: TA98, Metabolic Activation: RAT, LIVER, S-9, AROCLOR, Method: STANDARD PLATE", "value": "active; positive"},
      {"measurement": "mutagenic call", "setting": "[8]", "value": "active; positive"},
      {"measurement": "mutagenic call", "setting": "Test System: AMES SALMONELLA TYPHIMURIUM, Strain/Indicator: TA100, Metabolic Activation: RAT, LIVER, S-9, AROCLOR, Method: STANDARD PLATE", "value": "active; positive"}
    ]},
    {"smiles": "CCCCOc1cc(N=Nc2ccccc2)ccc1N=Nc1c(S(=O)(=O)O)cc2ccc(N)cc2c1O", "values": [
      {"measurement": "mutagenic call", "setting": "[7]", "value": "inactive; negative"},
      {"measurement": "mutagenic call", "setting": "Test System: AMES SALMONELLA TYPHIMURIUM, Strain/Indicator: TA98, Metabolic Activation: RAT, LIVER, S-9, AROCLOR 1254, Method: STANDARD PLATE", "value": "active; positive"},
      {"measurement": "mutagenic call", "setting": "[8]", "value": "inactive; negative"},
      {"measurement": "mutagenic call", "setting": "Test System: AMES SALMONELLA TYPHIMURIUM, Strain/Indicator: TA100, Metabolic Activation: RAT, LIVER, S-9, AROCLOR 1254, Method: STANDARD PLATE", "value": "inactive; negative"},
      {"measurement": "mutagenic call", "setting": "Test System: AMES SALMONELLA TYPHIMURIUM, Strain/Indicator: TA1538, Metabolic Activation: NONE, Method: STANDARD PLATE", "value": "inactive; negative"},
      {"measurement": "mutagenic call", "setting": "Test System: AMES SALMONELLA TYPHIMURIUM, Strain/Indicator: TA1538, Metabolic Activation: RAT, LIVER, S-9, AROCLOR 1254, Method: STANDARD PLATE", "value": "active; positive"}
    ]},
    {"smiles": "Cc1cc(-c2cc(C)c(N)c(C)c2)cc(C)c1N", "values": [
      {"measurement": "mutagenic call", "setting": "Test System: AMES SALMONELLA TYPHIMURIUM, Strain/Indicator: TA97, Metabolic Activation: HAMSTER, LIVER, S-9, AROCLOR 1254 (10%), Method: PREINCUBATION", "value": "inactive; negative"},
      {"measurement": "mutagenic call", "setting": "Test System: AMES SALMONELLA TYPHIMURIUM, Strain/Indicator: TA97, Metabolic Activation: HAMSTER, LIVER, S-9, AROCLOR 1254 (30%), Method: PREINCUBATION", "value": "inactive; negative"},
      {"measurement": "mutagenic call", "setting": "Test System: AMES SALMONELLA TYPHIMURIUM, Strain/Indicator: TA97, Metabolic Activation: NONE, Method: PREINCUBATION", "value": "inactive; negative"},
      {"measurement": "mutagenic call", "setting": "Test System: AMES SALMONELLA TYPHIMURIUM, Strain/Indicator: TA97, Metabolic Activation: RAT, LIVER, S-9, AROCLOR 1254 (10%), Method: PREINCUBATION", "value": "inactive; negative"},
      {"measurement": "mutagenic call", "setting": "Test System: AMES SALMONELLA TYPHIMURIUM, Strain/Indicator: TA97, Metabolic Activation: RAT, LIVER, S-9, AROCLOR 1254 (30%), Method: PREINCUBATION", "value": "inactive; negative"},
      {"measurement": "mutagenic call", "setting": "Test System: AMES SALMONELLA TYPHIMURIUM, Strain/Indicator: TA98, Metabolic Activation: HAMSTER, LIVER, S-9, AROCLOR 1254 (10%), Method: PREINCUBATION", "value": "inactive; negative"},
      {"measurement": "mutagenic call", "setting": "[1]", "value": "inactive; negative"},
      {"measurement": "mutagenic call", "setting": "[2]", "value": "inactive; negative"},
      {"measurement": "mutagenic call", "setting": "Test System: AMES SALMONELLA TYPHIMURIUM, Strain/Indicator: TA98, Metabolic Activation: RAT LIVER S-9, AROCLOR 1254, Method: PREINCUBATION", "value": "inactive; negative"},
      {"measurement": "mutagenic call", "setting": "Test System: AMES SALMONELLA TYPHIMURIUM, Strain/Indicator: TA98, Metabolic Activation: RAT, LIVER, S-9, AROCLOR 1254 (10%), Method: PREINCUBATION", "value": "inactive; negative"},
      {"measurement": "mutagenic call", "setting": "[3]", "value": "inactive; negative"},
      {"measurement": "mutagenic call", "setting": "Test System: AMES SALMONELLA TYPHIMURIUM, Strain/Indicator: TA100, Metabolic Activation: HAMSTER, LIVER, S-9, AROCLOR 1254 (10%), Method: PREINCUBATION", "value": "inactive; negative"},
      {"measurement": "mutagenic call", "setting": "[4]", "value": "inactive; negative"},
      {"measurement": "mutagenic call", "setting": "[5]", "value": "inactive; negative"},
      {"measurement": "mutagenic call", "setting": "Test System: AMES SALMONELLA TYPHIMURIUM, Strain/Indicator: TA100, Metabolic Activation: RAT LIVER S-9, AROCLOR 1254, Method: PREINCUBATION", "value": "inactive; negative"},
      {"measurement": "mutagenic call", "setting": "Test System: AMES SALMONELLA TYPHIMURIUM, Strain/Indicator: TA100, Metabolic Activation: RAT, LIVER, S-9, AROCLOR 1254 (10%), Method: PREINCUBATION", "value": "inactive; negative"},
      {"measurement": "mutagenic call", "setting": "[6]", "value": "inactive; negative"},
      {"measurement": "mutagenic call", "setting": "Test System: AMES SALMONELLA TYPHIMURIUM, Strain/Indicator: TA1535, Metabolic Activation: HAMSTER, LIVER, S-9, AROCLOR 1254 (10%), Method: PREINCUBATION", "value": "inactive; negative"},
      {"measurement": "mutagenic call", "setting": "Test System: AMES SALMONELLA TYPHIMURIUM, Strain/Indicator: TA1535, Metabolic Activation: HAMSTER, LIVER, S-9, AROCLOR 1254 (30%), Method: PREINCUBATION", "value": "inactive; negative"},
      {"measurement": "mutagenic call", "setting": "Test System: AMES SALMONELLA TYPHIMURIUM, Strain/Indicator: TA1535, Metabolic Activation: NONE, Method: PREINCUBATION", "value": "inactive; negative"},
      {"measurement": "mutagenic call", "setting": "Test System: AMES SALMONELLA TYPHIMURIUM, Strain/Indicator: TA1535, Metabolic Activation: RAT, LIVER, S-9, AROCLOR 1254 (10%), Method: PREINCUBATION", "value": "inactive; negative"},
      {"measurement": "mutagenic call", "setting": "Test System: AMES SALMONELLA TYPHIMURIUM, Strain/Indicator: TA1535, Metabolic Activation: RAT, LIVER, S-9, AROCLOR 1254 (30%), Method: PREINCUBATION", "value": "inactive; negative"},
      {"measurement": "mutagenic call", "setting": "Test System: Ames Salmonella typhimurium, Strain/Indicator: TA102, Metabolic Activation: None, Method: Preincubation", "value": "inactive; negative"},
      {"measurement": "mutagenic call", "setting": "Test System: Ames Salmonella typhimurium, Strain/Indicator: TA102, Metabolic Activation: Rat, liver, S-9, Aroclor 1254, Method: Preincubation", "value": "inactive; negative"},
      {"measurement": "mutagenic call", "setting": "Test System: MOUSE LYMPHOMA, Strain/Indicator: L5178Y (TK+/TK-), Metabolic Activation: RAT, LIVER, S-9, AROCLOR 1254, Method: SUSPENSION/PLATE", "value": "inactive; negative"},
      {"measurement": "mutagenic call", "setting": "Test System: MOUSE LYMPHOMA, Strain/Indicator: L5178Y (TK+/TK-), Metabolic Activation: RAT, LIVER, S-9, Method: SUSPENSION/PLATE", "value": "inactive; negative"}
    ]},
    {"smiles": "CC(C)CCOS(C)(=O)=O", "values": [
      {"measurement": "mutagenic call", "setting": "End Point: IN VITRO MICRONUCLEUS, Test System: MOUSE LYMPHOMA L5178Y CELLS, Metabolic Activation: NONE", "value": "active; positive"},
      {"measurement": "mutagenic call", "setting": "End Point: IN VITRO MICRONUCLEUS, Test System: MOUSE LYMPHOMA L5178Y CELLS, Metabolic Activation: RAT, LIVER, S-9", "value": "inactive; negative"},
      {"measurement": "mutagenic call", "setting": "[8]", "value": "active; positive"},
      {"measurement": "mutagenic call", "setting": "Test System: AMES SALMONELLA TYPHIMURIUM, Strain/Indicator: TA100, Metabolic Activation: RAT, LIVER, S-9, Method: STANDARD PLATE", "value": "active; positive"}
    ]},
    {"smiles": "c1cnc2c3c(ccc2c1)CC[C@H]1O[C@@H]31", "values": [
      {"measurement": "mutagenic call", "setting": "[8]", "value": "active; positive"}
    ]}
  ]
}
